Data taken from the NIST ThermoML archive (doi:10.1016/j.jct.2014.07.018).

Assay: molar heat capacity at constant pressure
Conditions: 101.33 kPa, Vacuum adiabatic calorimetry

CCCCn1cc[n+](C)c1.[I-] [1-butyl-3-methylimidazolium iodide]
Conditions	molar heat capacity at constant pressure [J/K/mol]
168.81 K, Crystal	158.7
169.51 K, Crystal	159.1
170 K, Crystal	159.4
170 K, Glass	172.3
170.6 K, Glass	172.7
170.88 K, Crystal	159.9
171.57 K, Crystal	160.3
172.61 K, Glass	174
172.94 K, Crystal	161.1
173.64 K, Crystal	161.5
174.62 K, Glass	175.4
175.01 K, Crystal	162.3
175.71 K, Crystal	162.7
176.63 K, Glass	176.8
177.07 K, Crystal	163.5
177.77 K, Crystal	163.9
178.63 K, Glass	178.2
179.14 K, Crystal	164.8
179.83 K, Crystal	165.2
180 K, Crystal	165.3
180 K, Glass	179.1
180.64 K, Glass	179.6
181.2 K, Crystal	166.1
181.89 K, Crystal	166.6
182.64 K, Glass	181
183.26 K, Crystal	167.6
183.95 K, Crystal	168.1
184.64 K, Glass	182.6
185.31 K, Crystal	169.1
186 K, Crystal	169.6
186.65 K, Glass	184.1
187.36 K, Crystal	170.6
188.05 K, Crystal	171.1
188.65 K, Glass	185.7
189.41 K, Crystal	171.9
190 K, Crystal	172.3
190 K, Glass	186.7
190.1 K, Crystal	172.4
190.65 K, Glass	187.2
191.46 K, Crystal	173.3
192.15 K, Crystal	173.7
192.65 K, Glass	188.9
193.51 K, Crystal	174.5
194.2 K, Crystal	174.9
194.65 K, Glass	191
195.56 K, Crystal	175.7
196.24 K, Crystal	176.1
196.66 K, Glass	193
197.6 K, Crystal	176.9
198.29 K, Crystal	177.3
198.66 K, Glass	195.4
199.65 K, Crystal	178.1
200 K, Crystal	178.3
200 K, Glass	197.5
200.33 K, Crystal	178.5
200.66 K, Glass	198.5
201.69 K, Crystal	179.3
202.37 K, Crystal	179.8
202.93 K, Glass	204.1
203.73 K, Crystal	180.5
204.41 K, Crystal	180.9
205.45 K, Glass	214.4
205.77 K, Crystal	181.8
206.45 K, Crystal	182.2
207.77 K, Liquid	247.8
207.8 K, Crystal	183
208.48 K, Crystal	183.4
209.84 K, Crystal	184.3
209.86 K, Liquid	287.7
210 K, Crystal	184.3
210 K, Liquid	287.6
210.52 K, Crystal	184.6
211.87 K, Crystal	185.5
212.03 K, Liquid	285.8
212.55 K, Crystal	185.9
213.91 K, Crystal	186.8
214.19 K, Liquid	286.4
214.58 K, Crystal	187.2
215.94 K, Crystal	188.1
216.37 K, Liquid	286.6
216.61 K, Crystal	188.6
217.97 K, Crystal	189.5
218.54 K, Liquid	287.1
218.63 K, Crystal	190.1
219.99 K, Crystal	191
220 K, Crystal	191
220 K, Liquid	287.3
220.66 K, Crystal	191.6
220.72 K, Liquid	287.4
222.01 K, Crystal	192.5
222.11 K, Liquid	287.7
222.67 K, Crystal	193
222.9 K, Liquid	287.9
224.03 K, Crystal	194
224.39 K, Liquid	288.2
224.69 K, Crystal	194.5
225.09 K, Liquid	288.5
226.04 K, Crystal	195.5
226.56 K, Liquid	288.5
226.7 K, Crystal	196
226.71 K, Liquid	288.5
227.28 K, Liquid	288.7
227.61 K, Crystal	196.7
228.05 K, Crystal	197.1
228.71 K, Crystal	197.5
228.74 K, Liquid	289
228.79 K, Liquid	289
229.47 K, Liquid	289.3
229.61 K, Crystal	198.3
230 K, Crystal	198.5
230 K, Liquid	289.4
230.06 K, Crystal	198.5
230.71 K, Crystal	198.9
230.77 K, Liquid	289.5
230.93 K, Liquid	289.5
231.61 K, Crystal	199.7
231.66 K, Liquid	289.8
232.06 K, Crystal	200
232.71 K, Crystal	200.6
232.76 K, Liquid	289.8
233.11 K, Liquid	290.1
233.61 K, Crystal	201.3
233.72 K, Liquid	290.1
233.86 K, Liquid	290.3
234.06 K, Crystal	201.7
234.71 K, Crystal	202
234.74 K, Liquid	290.3
235.3 K, Liquid	290.6
235.61 K, Crystal	202.8
235.72 K, Liquid	290.6
236.05 K, Crystal	203.2
236.05 K, Liquid	290.9
236.7 K, Crystal	203.6
236.72 K, Liquid	290.9
237.48 K, Liquid	291.1
237.6 K, Crystal	204.3
237.71 K, Liquid	291.1
238.04 K, Crystal	204.8
238.25 K, Liquid	291.4
238.69 K, Crystal	205.3
238.71 K, Liquid	291.4
239.6 K, Crystal	205.9
239.67 K, Liquid	291.7
